Measurements as given in patent publication EP0624159B1, “PYRIDYL SUBSTITUTED IMIDAZOLES” (SMITHKLINE BEECHAM CORPORATION, priority 1992, dated 1993).

Key:
[1] = system: IL-1 production by human monocytes; assay: Inhibition of in vitro IL-1 production by LPS-stimulated human monocytes (IL-1 bioassay via EL-4 IL-2 secretion); assay type: cell-based; settings: Monocyte; human peripheral blood monocytes, compound 1 hr before LPS 50 ng/ml, 24 hours at 37°C
Experimental: The effects of compounds of Formula (I) on the in vitro production of IL-1 by human monocytes was examined using the following protocol.
Bacterial lipopolysaccharide (LPS) was used to induce IL-1 production by human peripheral blood monocytes. IL-1 activity was measured by its ability to stimulate a Interleukin 2 (IL-2) producing cell line (EL-4) to secrete IL-2, in concert with A23187 ionophore, according to the method of Simon et al., J. Immunol. Methods, 84, 85, (1985). Human peripheral blood monocytes were isolated and purified from either fresh blood preparations from volunteer donors, or from blood bank buffy coats, according to the procedure of Colotta et al., J. Immunol., 132, 936 (1984). 1 X 10^6 of such monocytes were plated in 24-well plates at a concentration of 1-2 million/ml per well. The cells were allowed to adhere for 2 hours, after which time non-adherent cells were removed by gentle washing. Test compounds were then added to the cells for 1 hour (hr) before the addition of lipopolysaccharide (50 ng/ml), and the cultures were incubated at 37°C for an additional 24 hours. At the end of the incubation period, culture supernatants were removed and clarified of cells and all debris. Culture supernatants were immediately assayed for IL-1 biological activity in the manner described above, as well as for prostaglandin and/or leukotriene concentrations by radioimmunoassay.

[2] = system: TNF production by Human Monocytes; assay: Inhibition of in vitro TNF production by LPS-stimulated human monocytes (radioimmunoassay / ELISA); assay type: cell-based; settings: Monocyte; human peripheral blood monocytes, compound 45 minutes before LPS 100 ng/ml, 16-18 hours at 37°C
Experimental: The effects of compounds of Formula (I) on the in vitro production of TNF by human monocytes was examined using the following protocol.
Human peripheral blood monocytes were isolated and purified from either blood bank buffy coats or plateletpheresis residues, according to the procedure of Colotta, R. et al., J. Immunol., 132(2):936 (1984). The monocytes were plated at a density of 1 X 10^6 cells/ml medium/well in 24-well multi-dishes. […]
The assay buffer consisted of 0.01M NaPO4, 0.15M NaCl, 0.025M EDTA and 0.1% sodium azide at pH 7.4. […] Tubes were centrifuged for 30 minutes at 2000 rpm, supernatants were carefully aspirated, and radioactivity associated with the pellets measured in a Beckman Gamma 5500 counter. […] The concentrations of TNF in the samples was read of a standard curve of rhTNF that was linear in the 157 to 20,000 pg/ml range.
Iodination of rhTNF was performed using a modified chloramine-T method of Frolik et al., J. Biol. Chem., 259:10995-11000 (1984). […] The peak radioactivity containing fractions were pooled and stored at -20°C. […] Biological activity of iodinated TNF was measured by the L929 cytotoxicity assay of Neale, M.L. et al., Eur. J. Can. […]

Compound | IC50 [1] | IC50 [2]
C[S+]([O-])c1ccc(-c2cn(-c3ccncc3)c(-c3ccc(F)cc3)n2)cc1 (stereo not shown) [Example 4, 1-(4-Pyridyl)-2-(4-fluorophenyl)-4-(4-methylsulfinylphenyl)imidazole] | > 5 µM | 
Cc1cn(-c2ccncc2)c(-c2ccc(F)cc2)n1 [Example 5, 1-(4-pyridyl)-2-(4-fluorophenyl)-4-methylimidazole] | 0.1 to 5 µM | 
CSc1ccc(-c2cn(-c3ccncc3)c(-c3ccc(F)cc3)n2)cc1 [Example 3, 1-(4-Pyridyl)-2-(4-fluorophenyl)-4-(4-thiomethylphenyl) imidazole] | > 5 µM | 
Oc1ccc(-c2cn(-c3ccncc3)c(-c3ccc(F)cc3)n2)cc1 [Example 2, 1-(4-Pyridyl)-2-(4-fluorophenyl)-4-(4-hydroxyphenyl)imidazole] | 0.1 to 5 µM | 0.5 to 3.5 µM
Fc1ccc(-c2nc(-c3ccccc3)cn2-c2ccncc2)cc1 [Example 1, 1-(4-Pyridyl)-2-(4-fluorophenyl)-4-phenylimidazole] | 0.1 to 5 µM | 0.5 to 3.5 µM
